# Assay results as given in patent US8883776B2, “Cycloalkyloxy- and heterocycloalkyloxypyridine compounds as modulators of the histamine H3 receptor” (Janssen Pharmaceutica N.V., priority 2007, dated 2014).
# Where a name gives a salt, the structure may show the parent alone.
# How the values were obtained:
# [1] = biological target: T1, cloned human H3 receptors (Homo sapiens, UniProt Q9Y5N1); experiment: H3 Receptor Binding (Human); details: cloned human H3 receptors stably expressed in SK-N-MC cells; average of results
# T1 construct: expressed in transfected cells
# Method: H3 Receptor Binding (Human)
# Binding of compounds to the cloned human H3 receptors, stably expressed in SK-N-MC cells, was performed as described by Barbier, A. J. et al. (Br. J. Pharmacol. 2004, 143(5), 649-661).
# rat H3 receptor [2] = biological target: T2, rat H3 receptor (Rattus norvegicus, UniProt Q9QYN8); experiment: H3 Receptor Binding (Rat), rat brain membranes, N-[3H]-α-methylhistamine; details: rat brain without cerebellum membranes; 0.8 nM N-[3H]-α-methylhistamine; average of results
# Method: H3 Receptor Binding (Rat)
# A rat brain without cerebellum (Zivic Laboratories Inc., Pittsburgh, Pa.) was homogenized in 50 mM Tris-HCl/5 mM EDTA and centrifuged at 1,000 rpm for 5 min. The supernatant was removed and recentrifuged at 15,000 rpm for 30 min. Pellets were rehomogenized in 50 mM Tris/5 mM EDTA (pH 7.4). Membranes were incubated with 0.8 nM N—[^3H]-α-methylhistamine plus/minus test compounds for 60 min at 25° C. and harvested by rapid filtration over GF/C glass fiber filters (pretreated with 0.3% polyethylenimine) followed by four washes with buffer. Nonspecific binding was defined in the presence of 100 μM histamine. Inhibitory concentration (responsible for 50% inhibition of maximal effect, IC50) values were determined by a single site curve-fitting program (GraphPad, San Diego, Calif.) and converted to Ki values based on a N—[^3H]-α-methylhistamine dissociation constant (Kd) of 0.8 nM.
# rat H3 receptor [3] = biological target: T2, rat H3 receptor; experiment: Cyclic AMP Accumulation, SK-N-MC cells expressing reporter construct and rat H3 receptor; type: cell-based; set-up: expressed in transfected cells; host or cells: SK-N-MC sublines with reporter construct; details: cAMP accumulation, average of results, read-out: Rat pA2 (converted)
# Description: (§1) Sublines of SK-N-MC cells were created that expressed a reporter construct and either the human or rat H3 receptor. The pA2 values were obtained as described by Barbier et al. (2004).
# human H3 receptor = human H3 receptor (Homo sapiens, UniProt Q9Y5N1); experiment: Cyclic AMP Accumulation, SK-N-MC cells expressing reporter construct and human H3 receptor; type: cell-based; details: cAMP accumulation, average of results, read-out: Human pA2 (converted)
# Description: as §1
# T2 sequence (Q9QYN8 whole entry): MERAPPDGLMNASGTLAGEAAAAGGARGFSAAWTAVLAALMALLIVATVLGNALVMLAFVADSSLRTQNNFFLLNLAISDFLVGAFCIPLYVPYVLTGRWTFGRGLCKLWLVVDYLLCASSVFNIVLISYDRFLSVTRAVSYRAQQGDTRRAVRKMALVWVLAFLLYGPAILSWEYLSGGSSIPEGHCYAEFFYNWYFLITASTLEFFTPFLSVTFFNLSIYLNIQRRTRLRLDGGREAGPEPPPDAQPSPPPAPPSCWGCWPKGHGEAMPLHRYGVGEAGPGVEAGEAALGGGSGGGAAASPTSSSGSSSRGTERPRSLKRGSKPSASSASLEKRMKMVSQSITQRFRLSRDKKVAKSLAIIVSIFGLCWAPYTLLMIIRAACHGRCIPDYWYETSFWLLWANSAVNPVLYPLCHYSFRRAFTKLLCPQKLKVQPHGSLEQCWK
# human H3 receptor, sequence (Q9Y5N1 whole entry): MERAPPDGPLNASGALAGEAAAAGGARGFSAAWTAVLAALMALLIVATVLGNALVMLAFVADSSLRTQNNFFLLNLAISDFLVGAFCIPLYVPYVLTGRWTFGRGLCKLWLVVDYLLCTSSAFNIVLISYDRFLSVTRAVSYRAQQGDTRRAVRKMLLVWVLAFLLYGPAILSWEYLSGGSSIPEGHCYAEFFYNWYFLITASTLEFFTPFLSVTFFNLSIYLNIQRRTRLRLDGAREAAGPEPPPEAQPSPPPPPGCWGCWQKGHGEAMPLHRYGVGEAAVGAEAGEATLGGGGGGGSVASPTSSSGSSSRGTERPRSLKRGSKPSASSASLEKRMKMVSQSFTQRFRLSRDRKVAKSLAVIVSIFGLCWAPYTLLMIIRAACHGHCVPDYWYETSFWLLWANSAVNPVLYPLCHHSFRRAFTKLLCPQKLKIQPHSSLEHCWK
# T1 sequence (Q9Y5N1 whole entry): as above
SMILES,Ki [1],Ki (rat H3 receptor [2]),Kb (rat H3 receptor [3]),Kb (human H3 receptor)
"N#Cc1nc(C(=O)N2CCCN(C3CC3)CC2)ccc1OC1CCCCC1 [Example 12, 3-Cyclohexyloxy-6-(4-cyclopropyl-[1,4]diazepane-1-carbonyl)-pyridine-2-carbonitrile]",2.2 nM,,,
"CC(C)N1CCN(C(=O)c2ccc(OC3CCOC3)nc2)CC1 (stereo not drawn) [Example 1, (4-isopropyl-piperazin-1-yl)-[6-(tetrahydro-furan-3-yloxy)-pyridin-3-yl]-methanone hydrochloride salt]",104 nM,,,
"CC(C)N1CCN(C(=O)c2ccc(OCC3(C)COC3)nc2)CC1 [Example 5, (4-isopropyl-piperazin-1-yl)-[6-(3-methyl-oxetan-3-ylmethoxy)-pyridin-3-yl]-methanone hydrochloride salt]",5010 nM,,,
"CC(C)N1CCCN(C(=O)c2ccc(OCC3(C)COC3)nc2)CC1 [Example 6, (4-Isopropyl-[1,4]diazepan-1-yl)-[6-(3-methyl-oxetan-3-ylmethoxy)-pyridin-3-yl]-methanone hydrochloride salt]",37 nM,,,
"O=C(c1ccc(OC2CCOC2)nc1)N1CCCN(C2CC2)CC1 (stereo not drawn) [Example 3, (4-Cyclopropyl-[1,4]diazepan-1-yl)-[6-(tetrahydro-furan-3-yloxy)-pyridin-3-yl]-methanone]",6.8 nM,,,
"CC(C)N1CCCN(C(=O)c2ccc(OC3CCOC3)nc2)CC1 (stereo not drawn) [Example 2, (4-Isopropyl-[1,4]diazepan-1-yl)-[6-(tetrahydro-furan-3-yloxy)-pyridin-3-yl]-methanone hydrochloride salt]",9 nM,,,
"N#Cc1nc(C(=O)N2CCCN(C3CC3)CC2)ccc1OC1CCOC1 (stereo not drawn) [Example 10, 6-(4-Cyclopropyl-[1,4]diazepane-1-carbonyl)-3-(tetrahydro-furan-3-yloxy)-pyridine-2-carbonitrile]",21 nM,,,
"N#Cc1nc(C(=O)N2CCCN(C3CC3)CC2)ccc1OC1CCCC1 [Example 11, 3-Cyclopentyloxy-6-(4-cyclopropyl-[1,4]diazepane-1-carbonyl)-pyridine-2-carbonitrile]",6 nM,,,

# These reach a lower Ki [1]. Values come first.
Ki [1],Ki (rat H3 receptor [2]),Kb (rat H3 receptor [3]),Kb (human H3 receptor),SMILES
1.3 nM,58 nM,14.5 nM,0.331 nM,"O=C(c1ccc(OC2CCOC2)nc1)N1CCCN(C2CCC2)CC1 (stereo not drawn) [Example 4, (4-Cyclobutyl-[1,4]diazepan-1-yl)-[6-(tetrahydro-furan-3-yloxy)-pyridin-3-yl]-methanone]"
1.1 nM,44 nM,4.79 nM,0.49 nM,"O=C(c1ccc(OC2CCCC2)nc1)N1CCCN(C2CCC2)CC1 [Example 7, (4-Cyclobutyl-[1,4]diazepan-1-yl)-(6-cyclopentyloxy-pyridin-3-yl)-methanone]"
0.8 nM,17 nM,9.77 nM,1.05 nM,"O=C(c1ccc(OC2CCCCC2)nc1)N1CCCN(C2CCC2)CC1 [Example 8, (4-Cyclobutyl-[1,4]diazepan-1-yl)-(6-cyclohexyloxy-pyridin-3-yl)-methanone]"
0.9 nM,28 nM,4.37 nM,0.234 nM,"O=C(c1ccc(OC2CCOCC2)nc1)N1CCCN(C2CCC2)CC1 [Example 9, (4-Cyclobutyl-[1,4]diazepan-1-yl)-[6-(tetrahydro-pyran-4-yloxy)-pyridin-3-yl]-methanone]"
